# Where a SMILES comes first, the peptide text is derived from it. [ ]: non-standard residue; d: D form. NMeF = CN[C@@H](Cc1ccccc1)C(=O)O
# Key:
# [1] = target: Substance-P receptor (Homo sapiens, UniProt P25103)
# [2] = target: T1, Neuromedin-K receptor (Homo sapiens, UniProt P29371)
# T1 sequence (P29371 whole entry): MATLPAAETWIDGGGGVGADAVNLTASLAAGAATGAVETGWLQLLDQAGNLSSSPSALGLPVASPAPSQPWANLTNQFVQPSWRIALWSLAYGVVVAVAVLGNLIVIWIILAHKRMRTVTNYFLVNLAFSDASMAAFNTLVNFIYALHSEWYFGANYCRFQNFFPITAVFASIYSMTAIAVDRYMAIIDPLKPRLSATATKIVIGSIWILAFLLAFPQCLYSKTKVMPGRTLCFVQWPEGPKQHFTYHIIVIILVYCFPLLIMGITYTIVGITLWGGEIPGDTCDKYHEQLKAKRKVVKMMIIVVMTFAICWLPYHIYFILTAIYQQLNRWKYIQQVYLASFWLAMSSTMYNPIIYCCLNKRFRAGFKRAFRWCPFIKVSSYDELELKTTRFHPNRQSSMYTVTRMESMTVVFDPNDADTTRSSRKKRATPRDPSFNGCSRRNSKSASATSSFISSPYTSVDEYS
# [3] = target: T2, Substance-K receptor (Homo sapiens, UniProt P21452)
# T2 sequence (P21452 whole entry): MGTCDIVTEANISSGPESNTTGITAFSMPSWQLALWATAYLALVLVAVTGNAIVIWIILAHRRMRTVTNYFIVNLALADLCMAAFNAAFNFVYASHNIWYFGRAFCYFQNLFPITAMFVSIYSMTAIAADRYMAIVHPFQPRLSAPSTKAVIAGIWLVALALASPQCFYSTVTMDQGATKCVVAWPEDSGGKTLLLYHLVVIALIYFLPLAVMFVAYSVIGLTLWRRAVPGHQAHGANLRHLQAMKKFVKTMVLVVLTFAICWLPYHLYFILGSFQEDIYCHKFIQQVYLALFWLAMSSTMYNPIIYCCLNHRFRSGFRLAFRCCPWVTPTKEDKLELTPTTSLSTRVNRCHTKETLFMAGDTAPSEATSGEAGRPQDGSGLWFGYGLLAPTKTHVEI
# Chain of Substance-P receptor (P25103 whole entry): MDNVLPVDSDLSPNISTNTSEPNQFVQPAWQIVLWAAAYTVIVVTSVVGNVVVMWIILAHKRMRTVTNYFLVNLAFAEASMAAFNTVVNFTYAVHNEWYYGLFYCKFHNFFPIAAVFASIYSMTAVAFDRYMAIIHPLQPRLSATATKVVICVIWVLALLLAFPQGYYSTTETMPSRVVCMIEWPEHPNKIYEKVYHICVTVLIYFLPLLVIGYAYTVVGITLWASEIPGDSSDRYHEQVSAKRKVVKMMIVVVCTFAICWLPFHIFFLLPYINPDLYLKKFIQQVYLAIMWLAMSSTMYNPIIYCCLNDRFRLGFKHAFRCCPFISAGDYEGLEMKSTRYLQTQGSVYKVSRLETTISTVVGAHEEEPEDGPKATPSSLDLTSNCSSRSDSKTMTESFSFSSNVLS
Ki [1] [nM],Ki [2] [nM],Ki [3] [nM],SMILES
> 10000,0.31,–,CSCC[C@H](NC(=O)[C@H](CC(C)C)NC(=O)CNC(=O)[C@H](Cc1ccccc1)N(C)C(=O)[C@H](Cc1ccccc1)NC(=O)[C@H](Cc1ccccc1)NC(=O)[C@H](CC(=O)O)NC(=O)[C@H](Cc1cnc[nH]1)NC(=O)[C@H](CCSC)NC(=O)[C@@H](N)CC(=O)O)C(N)=O [NKB [MePhe7]] (H-DMHDFF[NMeF]GLM-NH2)
–,–,16.5,CSCC[C@H](NC(=O)[C@H](CC(C)C)NC(=O)CNC(=O)[C@@H](NC(=O)[C@H](Cc1ccccc1)NC(=O)[C@H](Cc1ccccc1)NC(=O)[C@H](CC(=O)O)NC(=O)[C@H](Cc1c[nH]cn1)NC(=O)[C@H](CCSC)NC(=O)[C@@H](N)CC(=O)O)C(C)C)C(N)=O [NSC_5311312]
–,> 10000,> 10000,COc1ccccc1CN[C@H]1CCCN[C@H]1c1ccccc1 [(+/-)(2-Methoxy-benzyl)-(2-phenyl-piperidin-3-yl)-amine]
454,707,0.23,CC(=O)NC1(c2ccccc2)CCN(CCC(CN(C)C(=O)c2ccccc2)c2ccc(Cl)c(Cl)c2)CC1 (stereo not drawn) [SR 48968]

# Source: BindingDB's records for PubMed 9190866 (Smithkline Beecham Pharmaceuticals, 1997)
